Data published in ChEMBL document CHEMBL5131461, “Discovery of 4-(phenoxymethyl)-1H-1,2,3-triazole derivatives as novel xanthine oxidase inhibitors” (Bioorg Med Chem Lett, 2022).
pIC50: −log10 of the molar value. Activity calls are given as the source filed them. No cut-off for these calls is given here.

The compounds below were run on Rattus norvegicus (assay: In vivo Hypouricemic activity against potassium oxonate-induced hyperuricemia rat model assessed as reduction in AUC of serum uric acid level at 20 mg/kg, po measured after 0.5 to 8 hrs). Settings: time 0.5-8 hrs.
Type: functional, organism-based
With `COc1cccc(Cn2cc(COc3ccc(F)cc3C=O)nn2)c1` the Activity was “Active”.

These compounds were tested against T1, Xanthine dehydrogenase/oxidase (Bos taurus, UniProt P80457) (assay: Inhibition of bovine XO assessed as inhibition of uric acid formation using xanthine as substrate preincubated with enzyme for 10 mins followed by substrate addition and measured for 2 mins by spectrophotometry). Settings: not given.
T1 sequence (P80457 whole entry): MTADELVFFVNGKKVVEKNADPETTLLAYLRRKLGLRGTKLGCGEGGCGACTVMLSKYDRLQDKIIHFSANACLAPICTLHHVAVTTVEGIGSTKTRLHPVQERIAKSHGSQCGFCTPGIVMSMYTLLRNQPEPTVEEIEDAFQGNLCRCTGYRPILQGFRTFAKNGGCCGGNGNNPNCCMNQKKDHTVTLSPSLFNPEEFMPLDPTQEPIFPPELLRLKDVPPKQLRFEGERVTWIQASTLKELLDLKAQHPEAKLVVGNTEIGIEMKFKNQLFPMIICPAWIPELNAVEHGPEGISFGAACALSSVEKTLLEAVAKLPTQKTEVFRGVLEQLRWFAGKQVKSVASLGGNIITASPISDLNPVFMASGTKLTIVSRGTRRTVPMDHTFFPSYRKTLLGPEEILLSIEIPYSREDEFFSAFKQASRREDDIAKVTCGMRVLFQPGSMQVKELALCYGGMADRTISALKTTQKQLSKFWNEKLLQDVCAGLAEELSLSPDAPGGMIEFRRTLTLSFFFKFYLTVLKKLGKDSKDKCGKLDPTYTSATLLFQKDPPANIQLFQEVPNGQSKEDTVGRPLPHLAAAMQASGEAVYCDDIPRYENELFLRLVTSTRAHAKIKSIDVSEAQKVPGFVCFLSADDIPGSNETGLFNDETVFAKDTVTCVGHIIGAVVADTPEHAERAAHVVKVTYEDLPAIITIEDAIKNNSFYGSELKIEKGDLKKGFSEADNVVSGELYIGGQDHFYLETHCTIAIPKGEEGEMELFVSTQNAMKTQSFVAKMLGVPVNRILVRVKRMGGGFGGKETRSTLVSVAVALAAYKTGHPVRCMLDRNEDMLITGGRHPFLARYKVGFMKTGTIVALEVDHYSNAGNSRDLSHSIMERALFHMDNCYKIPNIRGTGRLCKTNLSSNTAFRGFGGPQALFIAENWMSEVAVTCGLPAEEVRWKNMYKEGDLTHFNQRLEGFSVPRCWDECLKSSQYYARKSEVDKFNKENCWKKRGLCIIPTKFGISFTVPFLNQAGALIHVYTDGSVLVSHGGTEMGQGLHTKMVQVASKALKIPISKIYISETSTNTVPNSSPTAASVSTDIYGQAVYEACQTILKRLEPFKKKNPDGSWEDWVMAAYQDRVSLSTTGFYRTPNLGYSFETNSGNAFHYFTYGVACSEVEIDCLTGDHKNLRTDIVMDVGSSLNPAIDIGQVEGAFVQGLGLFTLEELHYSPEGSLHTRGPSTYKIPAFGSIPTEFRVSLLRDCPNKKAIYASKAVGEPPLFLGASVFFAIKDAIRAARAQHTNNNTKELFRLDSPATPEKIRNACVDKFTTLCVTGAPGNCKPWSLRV
In the case of `N#Cc1cccc(Cn2cc(COc3ccc(F)cc3C=O)nn2)c1`, the pIC50 was 5.60.
For `O=Cc1ccccc1OCc1cn(Cc2ccccc2)nn1`, the pIC50 was under 4.60.
Compound `CCCn1cc(COc2ccc(F)cc2C=O)nn1` has a pIC50 of 5.28.
`CC(C)Cn1cc(COc2ccccc2C=O)nn1` gave a pIC50 of 4.67.
`CCC(C)n1cc(COc2ccccc2C=O)nn1` (configuration not stated) gave a pIC50 of 4.66.
Compound `CCC(C)n1cc(COc2ccc(F)cc2C=O)nn1` (configuration not stated) has a pIC50 of 5.03.
`COc1ccccc1Cn1cc(COc2ccc(F)cc2C=O)nn1` gave a pIC50 of 6.03.
For `N#Cc1cccc(Cn2cc(COc3ccccc3C=O)nn2)c1`, the pIC50 was 5.77.
In the case of `CCCCn1cc(COc2cc(F)ccc2C=O)nn1`, the pIC50 was 5.44.
Work on `COc1ccccc1Cn1cc(COc2cc(F)ccc2C=O)nn1` yielded a pIC50 of 5.68.
`CCCCn1cc(COc2ccccc2C=O)nn1` was tested, and the pIC50 was 4.87.
For `CC(C)CCn1cc(COc2ccccc2C=O)nn1`, the pIC50 was 4.80.
In the case of `CC(C)CCn1cc(COc2ccc(F)cc2C=O)nn1`, the pIC50 was 5.67.
In the case of `CCn1cc(COc2ccc(F)cc2C=O)nn1`, the pIC50 was 5.46.
Work on `CCCCCn1cc(COc2ccc(F)cc2C=O)nn1` yielded a pIC50 of 5.52.
With `N#Cc1ccccc1Cn1cc(COc2ccc(F)cc2C=O)nn1` the pIC50 was 5.38.
Work on `COc1ccccc1Cn1cc(COc2ccccc2C=O)nn1` yielded a pIC50 of 5.84.
For `Cc1cccc(Cn2cc(COc3ccccc3C=O)nn2)c1`, the pIC50 was 5.95.
Compound `COc1cccc(Cn2cc(COc3ccccc3C=O)nn2)c1` has a pIC50 of 5.99.
`CC(C)Cn1cc(COc2ccc(F)cc2C=O)nn1` gave a pIC50 of 4.84.
`CC(C)n1cc(COc2ccc(F)cc2C=O)nn1` gave a pIC50 of 5.59.
With `Cc1cccc(Cn2cc(COc3ccc(F)cc3C=O)nn2)c1` the pIC50 was 5.93.
For `CCCCCn1cc(COc2ccccc2C=O)nn1`, the pIC50 was 4.74.
Compound `Cc1ccccc1Cn1cc(COc2ccc(F)cc2C=O)nn1` has a pIC50 of 5.40.
Work on `Cc1ccccc1Cn1cc(COc2ccccc2C=O)nn1` yielded a pIC50 of 5.79.
With `CCCCn1cc(COc2ccc(F)cc2C=O)nn1` the pIC50 was 5.60.
`N#Cc1ccccc1Cn1cc(COc2ccccc2C=O)nn1` was tested, and the pIC50 was 5.65.
In the case of `COc1cccc(Cn2cc(COc3ccc(F)cc3C=O)nn2)c1`, the pIC50 was 6.15.

What follows are compounds tested on Rattus norvegicus (assay: In vivo Hypouricemic activity against potassium oxonate-induced hyperuricemia rat model assessed as reduction in serum uric acid production at 20 mg/kg, po measured after 2 hrs). Settings: not given.
Type: functional, organism-based
With `COc1cccc(Cn2cc(COc3ccc(F)cc3C=O)nn2)c1` the Activity was “Active”.

Each compound was assayed against T1, Xanthine dehydrogenase/oxidase (assay: Inhibition of bovine XO assessed as inhibition of uric acid formation using xanthine as substrate at 25 uM preincubated with enzyme for 10 mins followed by substrate addition and measured for 2 mins by spectrophotometry). Settings: cattle, time 12 min.
`O=Cc1ccccc1OCc1cn(Cc2ccccc2)nn1` was tested, and the inhibition at 25 µM was under 50%.
For `COc1cccc(Cn2cc(COc3cc(F)ccc3C=O)nn2)c1`, the inhibition at 25 µM was under 50%.
In the case of `CC(C)n1cc(COc2ccccc2C=O)nn1`, the inhibition at 25 µM was under 50%.
With `COc1cccc(Cn2cc(COc3ccccc3[N+](=O)[O-])nn2)c1` the inhibition at 25 µM was under 50%.
Work on `CC(C)CCn1cc(COc2cc(F)ccc2C=O)nn1` yielded an inhibition at 25 µM of under 50%.
Work on `COc1ccccc1Cn1cc(COc2ccccc2C#N)nn1` yielded an inhibition at 25 µM of under 50%.
`CCn1cc(COc2ccccc2C=O)nn1` was tested, and the inhibition at 25 µM was under 50%.
In the case of `CCCn1cc(COc2ccccc2C=O)nn1`, the inhibition at 25 µM was under 50%.
Work on `COc1ccccc1Cn1cc(COc2ccccc2[N+](=O)[O-])nn1` yielded an inhibition at 25 µM of under 50%.
With `COc1cccc(Cn2cc(COc3ccccc3C#N)nn2)c1` the inhibition at 25 µM was under 50%.

Each compound was assayed against T1, Xanthine dehydrogenase/oxidase (assay: Potency index, ratio of allopurinol IC50 to test compound IC50 for bovine XO using xanthine as substrate by spectrophotometry). Settings: cattle.
In the case of `COc1cccc(Cn2cc(COc3ccc(F)cc3C=O)nn2)c1`, the “Ratio IC50” value was 14.

These compounds were tested on Rattus norvegicus (assay: In vivo Hypouricemic activity against potassium oxonate-induced hyperuricemia rat model assessed as reduction in serum uric acid production at 8 mg/kg, po measured after 2 hrs). Settings: not given.
Type: functional, organism-based
With `Oc1ncnc2[nH]ncc12` the Activity was “Active”.
